# Test: The polymerization of melanin (melanin pellet, absorbance at 400 nm; light microscope)
# Type: biochemical
# Conditions: 0.025 mg/ml melanin treated with 50 μM peptide for 24 h
# Description: 0.025 mg/ml melanin was treated with 50 μM peptide for 24 h. Data are represented as the means±SD from three independent experiments. ***p<0.001.
# 0.025 mg/ml melanin were treated with 50 μM peptides for 24 h, and then centrifuged at 10,000 g for 5 min. The supernatant was removed from the tube, leaving only the melanin pellet. The polymerization of melanin was quantified after boiling in 1 M NaOH for 1 hour and the absorbance was measured spectrophotometrically at 400 nm.
row,Sequence,melanin polymerization
1,CTISQPEWFKCRR [SEQ ID NO: 3],did not show effects on melanin polymerization
2,RMKKLGAPSI [SEQ ID NO: 15],did not show effects on melanin polymerization
3,APRKNVRWCTISQ [SEQ ID NO: 2],did not show effects on melanin polymerization

# From patent US20210214405A1, “PEPTIDE, METHOD AND COMPOSITION FOR MELANIN POLYMERIZATION AND HAIR DARKENING” (Renorigin Innovation Institute Co., Ltd., priority 2020, published 2021)
